Results as given in US8143290B2, “Chemical compounds 572” (AstraZeneca AB, priority 2006, dated 2012).

Target: T1, recombinant human GR (Homo sapiens, UniProt P04150)
T1 construct: purchased Panvera/Invitrogen P2812 (kit P2893)
T1 sequence (P04150 1-777): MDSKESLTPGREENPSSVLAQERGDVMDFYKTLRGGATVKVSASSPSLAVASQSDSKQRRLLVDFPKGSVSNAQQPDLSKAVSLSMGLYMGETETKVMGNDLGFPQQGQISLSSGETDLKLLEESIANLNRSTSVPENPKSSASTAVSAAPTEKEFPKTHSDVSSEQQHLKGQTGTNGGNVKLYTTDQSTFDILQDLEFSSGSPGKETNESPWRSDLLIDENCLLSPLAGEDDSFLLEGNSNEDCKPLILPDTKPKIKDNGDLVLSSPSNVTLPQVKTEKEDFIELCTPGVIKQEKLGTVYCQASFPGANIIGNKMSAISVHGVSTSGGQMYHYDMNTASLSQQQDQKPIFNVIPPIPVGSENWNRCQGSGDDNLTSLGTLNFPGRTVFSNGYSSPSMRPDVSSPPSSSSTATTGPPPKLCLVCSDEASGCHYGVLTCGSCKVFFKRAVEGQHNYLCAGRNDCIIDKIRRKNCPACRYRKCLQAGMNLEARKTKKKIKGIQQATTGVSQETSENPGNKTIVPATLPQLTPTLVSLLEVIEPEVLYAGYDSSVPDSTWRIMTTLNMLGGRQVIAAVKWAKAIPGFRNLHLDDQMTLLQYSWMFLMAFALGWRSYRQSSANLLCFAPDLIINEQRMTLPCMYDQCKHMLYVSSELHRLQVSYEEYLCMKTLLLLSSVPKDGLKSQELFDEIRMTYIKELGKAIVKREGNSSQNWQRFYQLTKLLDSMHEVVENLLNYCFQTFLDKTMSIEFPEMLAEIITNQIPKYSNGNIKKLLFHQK
Test: Human Glucocorticoid Receptor (GR) Assay, fluorescence polarization
Assay type: binding
Conditions: GS Red tracer, incubated 2 h at r.t., XLfit model 205, read-out: GRhuFL_FP_v2 Mean IC50
Procedure, shortened: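 Fluorescence polarization kit assay: recombinant GR and GS Red fluorescent ligand with Stabilizing Peptide and DTT in potassium phosphate/sodium molybdate/EDTA screening buffer. Plates incubated 2 h in the dark at r.t.; DMSO served as 0% and dexamethasone as 100% control.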

SMILES	IC50
COCCOCC(=O)N[C@@H](C)[C@H](Oc1ccc2c(cnn2-c2ccc(F)cc2)c1)c1cccc(OC)c1 [Example 71, N-[(1R,2S)-1-[1-(4-Fluorophenyl)indazol-5-yl]oxy-1-(3-methoxyphenyl)propan-2-yl]-2-(2-methoxyethoxy)acetamide]	4.6 nM
COc1cccc([C@@H](Oc2ccc3c(cnn3-c3ccc(F)cc3)c2)[C@H](C)NC(=O)CNC(N)=O)c1 [Example 270, 2-(carbamoylamino)-N-[(1R,2S)-1-[1-(4-fluorophenyl)indazol-5-yl]oxy-1-(3-methoxyphenyl)propan-2-yl]acetamide]	8.1 nM
C[C@H](NC(=O)C(C)(F)F)[C@H](Oc1ccc2c(cnn2-c2ccc(F)cc2)c1)c1cc(F)cc(Cl)c1 [Example 238, N-[(1R,2S)-1-(3-chloro-5-fluoro-phenyl)-1-[1-(4-fluorophenyl)indazol-5-yl]oxy-propan-2-yl]-2,2-difluoro-propanamide]	6.8 nM
COc1cccc([C@@H](Oc2ccc3c(cnn3-c3ccc(F)cc3)c2)[C@H](C)NC(=O)c2cc(C)on2)c1 [Example 136, N-[(1R,2S)-1-[1-(4-fluorophenyl)indazol-5-yl]oxy-1-(3-methoxyphenyl)propan-2-yl]-5-methyl-1,2-oxazole-3-carboxamide]	3 nM
COc1c(C)cc([C@@H](Oc2ccc3c(cnn3-c3ccc(F)cc3)c2)[C@H](C)NC(=O)C2(C)CC2)cc1C [Example 221, N-[(1R,2S)-1-[1-(4-fluorophenyl)indazol-5-yl]oxy-1-(4-methoxy-3,5-dimethyl-phenyl)propan-2-yl]-1-methyl-cyclopropane-1-carboxamide]	4.4 nM
COCC(=O)N[C@@H](C)[C@H](Oc1ccc2c(cnn2-c2ccc(F)cc2)c1)c1ccc(C(F)(F)F)cc1 [Example 59, N-[(1R,2S)-1-[1-(4-fluorophenyl)indazol-5-yl]oxy-1-[4-(trifluoromethyl)phenyl]propan-2-yl]-2-methoxy-acetamide]	3.3 nM
COc1cccc([C@@H](Oc2ccc3c(cnn3-c3ccc(F)cc3)c2)[C@H](C)NC(=O)c2ccc(Br)s2)c1 [Example 272, 5-bromo-N-[(1R,2S)-1-[1-(4-fluorophenyl)indazol-5-yl]oxy-1-(3-methoxyphenyl)propan-2-yl]thiophene-2-carboxamide]	4.3 nM
COC(=O)N[C@@H](C)[C@H](Oc1ccc2c(cnn2-c2ccc(F)cc2)c1)c1ccccc1 [Example 4, Methyl ((1S,2R)-2-{[1-(4-fluorophenyl)-1H-indazol-5-yl]oxy}-1-methyl-2-phenylethyl)carbamate]	5.9 nM
COc1cccc([C@@H](Oc2ccc3c(cnn3-c3ccc(F)cc3)c2)[C@H](C)NC(=O)C(=O)OC(C)(C)C)c1 [Example 75, tert-Butyl [(1R,2S)-1-[1-(4-fluorophenyl)indazol-5-yl]oxy-1-(3-methoxyphenyl)propan-2-yl]carbamoylformate]	5.3 nM
Cc1ccc([C@@H](Oc2ccc3c(cnn3-c3ccc(F)cc3)c2)[C@H](C)NC(=O)C(C)(C)CO)cc1F [Example 252, N-[(1R,2S)-1-(3-fluoro-4-methyl-phenyl)-1-[1-(4-fluorophenyl)indazol-5-yl]oxy-propan-2-yl]-3-hydroxy-2,2-dimethyl-propanamide]	4.7 nM
COc1cccc([C@@H](Oc2ccc3c(cnn3-c3ccc(F)cc3)c2)[C@H](C)NC(=O)c2sccc2C)c1 [Example 132, N-[(1R,2S)-1-[1-(4-fluorophenyl)indazol-5-yl]oxy-1-(3-methoxyphenyl)propan-2-yl]-3-methyl-thiophene-2-carboxamide]	4.1 nM
CC(C)(C)C(=O)NC(C(Oc1ccc2c(cnn2-c2ccc(F)cc2)c1)c1ccccc1)C(F)(F)F (single isomer, unassigned) [Example 147D1E1, N-(1,1,1-trifluoro-3-(1-(4-fluorophenyl)-1H-indazol-5-yloxy)-3-phenylpropan-2-yl)pivalamide]	97 nM
CCc1ccc([C@@H](Oc2ccc3c(cnn3-c3ccc(F)cc3)c2)[C@H](C)NC(=O)C(C)C)cc1 [Example 51, N-[(1R,2S)-1-(4-ethylphenyl)-1-[1-(4-fluorophenyl)indazol-5-yl]oxy-propan-2-yl]-2-methyl-propanamide]	4.3 nM
C[C@H](NC(=O)c1ccco1)[C@H](Oc1ccc2c(cnn2-c2ccncc2)c1)c1ccccc1 [Example 115, N-[(1S,2R)-1-Methyl-2-phenyl-2-{[1-(4-pyridyl)-1H-indazol-5-yl]oxy}ethyl]furan-2-carboxamide]	3.8 nM
Cc1ccc([C@@H](Oc2ccc3c(cnn3-c3ccc(F)cc3)c2)[C@H](C)NC(=O)C(F)(F)F)cc1F [Example 151, 2,2,2-trifluoro-N-[(1R,2S)-1-(3-fluoro-4-methyl-phenyl)-1-[1-(4-fluorophenyl)indazol-5-yl]oxy-propan-2-yl]acetamide]	32 nM
C[C@H](O)C(=O)N[C@@H](C)[C@H](Oc1ccc2c(cnn2-c2ccc(F)cc2)c1)c1ccccc1 [Example 48, (2S)-N-[(1R,2S)-1-[1-(4-fluorophenyl)indazol-5-yl]oxy-1-phenyl-propan-2-yl]-2-hydroxy-propanamide]	2.9 nM
C[C@H](NC(=O)CO)[C@H](Oc1ccc2c(cnn2-c2ccc(F)cc2)c1)c1ccc2c(c1)OCCO2 [Example 123, N-((1R,2S)-1-(2,3-dihydrobenzo[b][1,4]dioxin-6-yl)-1-(1-(4-fluorophenyl)-1H-indazol-5-yloxy)propan-2-yl)-2-hydroxyacetamide]	4.2 nM
COc1cccc([C@@H](Oc2cc3cnn(-c4ccc(F)cc4)c3cc2C)[C@H](C)NC(=O)CO)c1 [Example 67, N-[(1R,2S)-1-[1-(4-Fluorophenyl)-6-methyl-indazol-5-yl]oxy-1-(3-methoxyphenyl)propan-2-yl]-2-hydroxy-acetamide]	4.1 nM
C[C@H](NC(=O)C(F)(F)F)[C@H](Oc1ccc2c(cnn2-c2ccc(F)cc2)c1)c1cc(F)cc(Cl)c1 [Example 161, N-[(1R,2S)-1-(3-chloro-5-fluoro-phenyl)-1-[1-(4-fluorophenyl)indazol-5-yl]oxy-propan-2-yl]-2,2,2-trifluoro-acetamide]	8.5 nM
C[C@H](NC(=O)C1(C)CC1)[C@H](Oc1ccc2c(cnn2-c2ccc(F)cc2)c1)c1cc(F)cc(Cl)c1 [Example 223, N-[(1R,2S)-1-(3-chloro-5-fluoro-phenyl)-1-[1-(4-fluorophenyl)indazol-5-yl]oxy-propan-2-yl]-1-methyl-cyclopropane-1-carboxamide]	3.9 nM
C[C@H](NC(=O)CCl)[C@H](Oc1ccc2c(cnn2-c2ccc(F)cc2)c1)c1ccccc1 [Example 38, 2-Chloro-N-[(1R,2S)-1-[1-(4-fluorophenyl)indazol-5-yl]oxy-1-phenyl-propan-2-yl]acetamide]	2.4 nM
COc1ccccc1[C@@H](Oc1ccc2c(cnn2-c2ccc(F)cc2)c1)[C@H](C)NC(=O)C(F)(F)F [Example 164, 2,2,2-trifluoro-N-[(1R,2S)-1-[1-(4-fluorophenyl)indazol-5-yl]oxy-1-(2-methoxyphenyl)propan-2-yl]acetamide]	4.2 nM
COc1ccc([C@@H](Oc2ccc3c(cnn3-c3ccc(F)cc3)c2)[C@H](C)NC(=O)C2(C)CC2)c(C)c1 [Example 265, N-[(1R,2S)-1-[1-(4-fluorophenyl)indazol-5-yl]oxy-1-(4-methoxy-2-methyl-phenyl)propan-2-yl]-1-methyl-cyclopropane-1-carboxamide]	25 nM
COc1cccc([C@@H](Oc2ccc3c(cnn3-c3ccc(F)cc3)c2)[C@H](C)NC(=O)c2cc(C)[nH]n2)c1 [Example 282, N-[(1R,2S)-1-[1-(4-fluorophenyl)indazol-5-yl]oxy-1-(3-methoxyphenyl)propan-2-yl]-5-methyl-1H-pyrazole-3-carboxamide]	2.4 nM
CC(=O)N[C@@H](C)[C@H](Oc1cc2cnn(-c3ccc(F)cc3)c2cc1Cl)c1ccc(F)cc1 (single isomer, unassigned) [Example 102, N-[(1R*,2S*)-1-[6-chloro-1-(4-fluorophenyl)indazol-5-yl]oxy-1-(4-fluorophenyl)propan-2-yl]acetamide]	2.5 nM
COc1ccc([C@@H](Oc2ccc3c(cnn3-c3ccc(F)cc3)c2)[C@H](C)NC(=O)c2ncc(C)s2)cc1F [Example 198, N-[(1R,2S)-1-(3-fluoro-4-methoxy-phenyl)-1-[1-(4-fluorophenyl)indazol-5-yl]oxy-propan-2-yl]-5-methyl-1,3-thiazole-2-carboxamide]	3.8 nM
CCc1cccc([C@@H](Oc2ccc3c(cnn3-c3ccc(F)cc3)c2)[C@H](C)NC(=O)C(F)(F)F)c1 [Example 22, N-[(1R,2S)-1-(3-ethylphenyl)-1-[1-(4-fluorophenyl)indazol-5-yl]oxy-propan-2-yl]-2,2,2-trifluoro-acetamide]	4.7 nM
